Test results from patent publication US11667552B2, “Silver ion biocide delivery system” (priority 2018, dated 2023).

Tests used:
[1] = Silver ion concentration in effluent of water passed through a packed bed of silver material
Description: In this method, water is passed through a bed of silver chloride which releases silver chloride into the water stream as it flows through the bed.

[2] = Text: Another method of releasing silver ion in a water stream is the use of metal oxides, carbonates, and salts containing silver. These metal salts may include, but are not limited to, metal oxides, metal halides, or metal salts containing silver, and/or metallic silver, or a combination, mixture or alloy of metals containing silver.
Certain embodiments can be designed with internal design elements to compensate for decreasing volume of material as it is used during operation, without the need to use springs and associated hardware.

SMILES	Effluent Conc. Range Packed Bed (ug Ag^+/l) [1] [µg/L]	Max Theoretical Conc (ug salt/L) [2]	theoretical solubility limit [2]	silver ion in effluent from the AgCl bed ([1]; typical, depends on material morphology, temperature, pH)
[Br][Ag] [Silver Bromide]	5 to 100			
[Cl][Ag] [Silver Chloride]	200 to 800	1,900 ug/l	about 3 mg/l	about 100 μg/l
